{
  "source": "patent US7214512B2",
  "about": "“Genomic mammary Amyloid a sequence” (The Board of Regents of the University of Nebraska, priority 1999, dated 2007)",
  "molecules": {"B1": {"name": "prolactin: prolactin from sheep pituitary gland, used to stimulate colostrum-SAA production (protein, UniProt P01240 31-229, looked up)", "Prolactin": "TPVCPNGPGNCQVSLRDLFDRAVMVSHYIHNLSSEMFNEFDKRYAQGKGFITMALNSCHTSSLPTPEDKEQAQQTHHEVLMSLILGLLRSWNDPLYHLVTEVRGMKGVPDAILSRAIEIEEENKRLLEGMEMIFGQVIPGAKETEPYPVWSGLPSLQTKDEDARHSAFYNLLHCLRRDSSKIDTYLKLLNCRIIYNNNC"}, "B2": {"name": "colostrum-SAA: unique isoform of serum amyloid A found in bovine colostrum and MAC-T cell culture fluid (protein)", "chain": "QRWGTFLKEAGQGAKDMWRAYQDMKEANYRGADKYFHARGNYDAARRGPGGAWAAKVISNARETIQGITDPLFKGMTRDQVREDSKADQFANEWGRSGKDPNHFRPAGLPDKY"}, "B3": {"name": "SAA from the serum: SAA semi-purified from bovine serum, three isoforms staining with anti-SAA monoclonal antibody (protein)", "chain": "QWMSFFGEAYEGAKDMWRAYSDMREANYKGADKYFHARGNYDAAQRGPGGAWAAKVISDARENIQRFTDPLFKGTTSGQGQEDSRADQAANEWGRSGKDPNHFRPAGLPDKY"}},
  "key": {"[1]": {"system": "MUC3 mRNA", "experiment": "MUC3 mRNA expression in intestinal epithelial cell culture assay", "type": "cell-based, human", "conditions": "for MUC3 mRNA/28s RNA ratio, Mean: peptide comparison, Control = 100.000; for MUC3 mRNA/28s RNA ratio, Mean / MUC3 mRNA stimulation versus control (in words): 30 minutes at 37° C. at 50 μg/ml; for MUC3 mRNA stimulation versus control (in words): p<0.008", "source_text": "Different mucin genes have been identified and to date, twelve human mucin genes have been identified. However, MUC3 mucin is the predominant intestinal mucin. It has previously been shown that the MUC3 mucins are effective in preventing the adherence of enteropathogenic Escherichia coli (EPEC) to intestinal epithelial cells. […] It is also well known that breast-feeding infants are far less susceptible to infectious diarrhea than formula fed infants. There are a number of theories why this is so, but it is hypothesized that milk-associated amyloid (colostrum SAA) may be an important inducer of MUC3 gene expression. Applicant has evaluated MUC3 mRNA expression using an in vitro human cell culture assay system. In this system, intestinal cells incubated with the N-terminal peptide sequence of colostrum SAA have shown increased MUC3 mRNA expression as compared to control cells grown without the addition of colostrum SAA to the cell culture medium. To further explore this finding, Applicant has evaluated the functional specificity of the N-terminal peptide sequence of colostrum SAA by evaluation of MUC3 expression in the same in vitro assay using colostrum SAA N-terminal peptide sequences that have been randomly scrambled and a colostrum SAA peptide sequence downstream of the N-terminal sequence. If the expression of MUC3 is increased then intestinal cells grown in the presence of colostrum SAA should have a greater capacity to inhibit adherence of bacterial pathogens. This will be studied using EPEC in an in vitro assay system pre-incubated with colostrum SAA in the cell culture medium. Enteropathogenic E. coli are non-invasive, non-toxin producing pathogens that have been recognized as a significant cause of diarrhea in third world countries and in day care settings in developed countries. Future studies will evaluate the benefits of colostrum SAA in in vivo studies as well as characterized animal equivalent to human EPEC. Colostrum associated SAA provides a means to naturally upregulate the innate protective mechanisms of the human intestine and would provide a novel form of therapy to a common problem that occurs all too often in the third world leads to death of infants and in the developed world countries and leads to significant morbidity and cost. Furthermore, prevention of intestinal infections for traveler's or those having to live in conditions with altered sanitary practices would also reduce morbidity. Thus, this therapy offers an effective, natural, non-drug/chemical therapy.\n(§1) These four peptides were used in a cell culture assay designed to evaluate them for their properties of inducing mucin (MUC) mRNA production, either MUC3 or MUC2 according to the methods described by Mack et al. (Biochem. Biophys. Res. Commun. 199: 1012–1018, 1994 and Am J Physiol. Vol. 4, part 1, pg. G841–950, 1999).\nN-Terminal Peptide Titration and MUC3 mRNA Expression. Intestinal epithelial cells, Mack et al. 1994, 1999, were exposed to the N-terminal 10 amino acid bovine colostrum-SAA peptide (SEQ ID NO:30) at various concentrations for 30 minutes incubation at […]. The cells were incubated an additional hour following replacement of the test medium with fresh medium without peptide and then the total cellular niRNA isolated and analyzed for MUC3 specific mRNA. […] The optimum concentration was 50 μg/ml medium (see FIG. 7).\nMUC3 Stimulation. MUC3 stimulating activity of the N-terminal 10 amino acid bovine colostrum-SAA peptide was compared to the activity of the “Limited Scramble”, the “Total Scramble” and “C-Terminal peptides”. Optimum time and temperature of incubation and concentration of peptides was for 30 minutes at 37° C. at 50 μg/ml respectively."}, "[2]": {"system": "MUC2 mRNA", "experiment": "MUC2 mRNA expression in intestinal epithelial cells cultured under conditions favoring MUC2", "type": "cell-based, human", "conditions": "for MUC2 mRNA/28s RNA ratio, Mean: peptide comparison, conditions optimized for MUC3 stimulation, Control = 100.000", "source_text": "as §1\nMUC2 mRNA Stimulation. To address whether the N-Terminal 10 amino acid bovine colostrum-SAA peptide would stimulate mRNA synthesis for MUC2 production, intestinal epithelial cells were cultured under conditions favoring MUC2 expression rather than MUC3. All peptides were used at concentrations and conditions that were previously optimized for MUC3 stimulation. […] Additionally, conditions were changed to 2× the optimum MUC3 incubation time (1 hr). […] The evidence strongly indicates specificity of function in stimulating the production of a mucin produced mainly in the small intestine (MUC3) over one produced primarily in the large intestine (MUC2) (see FIG. 9)."}, "[3]": {"system": "Bovine MAC-T mammary gland epithelial cells", "experiment": "Colostrum-SAA production by MAC-T cells stimulated with prolactin (ELISA)", "type": "cell-based", "protocol": "Bovine MAC-T mammary gland epithelial cells were obtained from ATCC (CRL-10274) and cultured according to recommended conditions (Turner, J D and Huynh H. Immortalized bovine mammary epithelial cell line. U.S. Pat. No. 5,227,301 dated Jul. 13, 1993). MAC-T cells were cultured on Dulbecco's Modified Eagles Media (DMEM) supplemented with 10% Fetal Calf Serum (FCS), 5 μg/ml insulin, 1 μg/ml hydrocortisone and fungizone. Cells were incubated at 37° C. with 5% CO2. For colostrum-SAA production the cells were seeded onto type I Collagen coated plates. After 14 hours of incubation, the cells were washed twice with Dulbecco's phosphate buffered saline (DPBS) and incubated in media (DMEM, 5 μg/ml insulin, 1 μg/ml hydrocortisone and 2.5% FCS) supplemented with prolactin from sheep pituitary gland (5 μg/ml) for the stimulation of colostrum-SAA production. Approximately one half of the media was replaced daily with fresh prolactin supplemented media. Standard ELISA for the quantitation of SAA (FIG. 3) was used to assay aliquots of the growth media collected on the different days for the presence of colostrum-SAA.\nCells were kept in culture for 41 days in media supplemented with prolactin. Levels of colostrum-SAA production reached a maximum of almost 3000 ng/ml."}, "[4]": {"experiment": "Isoelectric focusing (IEF) and 2-D gel of SAA preparations", "type": "physicochemical", "conditions": "IEF on IPG strips, anti-SAA monoclonal antibody stain", "source_text": "Isoelectric Focusing (IEF) of SAA from serum, colostrum and cell culture fluid. The PROTEIN IEF Cell (BioRad) was used for the isoelectric focusing of the various SAA preparations. Ready Strip IPG Strips (BioRad Laboratories) with a pH range of 3–10 were used for the IEF. The second dimension (2-D) of the protein analysis was done by subjecting the IPG strips to 12% SDS-PAGE gel and electroblotting onto a PVDF membrane. The strips and blots were done in duplicate so that one of the blots could be stained with a protein stain, Coomassie Brilliant Blue, (CBB) and the other stained with the anti-SAA monoclonal antibody for the identification of the SAA protein isoforms. The samples also contained internal IEF standards (BioRad Laboratories) so that isoelectric point (pI) of each SAA isoforms could be determined. By comparing the antibody stained spots to the spots of the standards stained with CBB the apparent pI of the SAA isoforms could be determined. […]\nThe proteins subjected to the IEF and 2-D analysis were either affinity purified as described for the cell culture fluid or, in the case of the serum only semi-purified by hydrophobic chromatography. SAA is a highly hydrophobic molecule and will bind readily to Octyl Sepharose beads and then under the appropriate conditions can be eluted off the matrix. […]"}},
  "note": "Several values for one entry are separate records, joined by “and”; a condition that tells them apart may be missing. Identical values can stand only once.",
  "data": [
    {"molecule": "GKFAWEGMTL (randomized experimental control sequence) [Total Scramble, control peptide with the amino acids of the entire N-Terminal peptide in random order, reference compound]", "values": [
      {"measurement": "MUC3 mRNA/28s RNA ratio, Mean", "setting": "[1]", "result": 109.333},
      {"measurement": "MUC2 mRNA/28s RNA ratio, Mean", "setting": "[2]", "result": 65.833}
    ]},
    {"molecule": "MWGLTKFEAG (limited scramble for experiment) [N-terminal peptide in which the four TFLK amino acids were scrambled in their order, reference compound]", "values": [
      {"measurement": "MUC3 mRNA stimulation versus control (in words)", "setting": "[1]", "result": "lack of stimulation"},
      {"measurement": "MUC3 mRNA/28s RNA ratio, Mean", "setting": "[1]", "result": 95.000},
      {"measurement": "MUC2 mRNA/28s RNA ratio, Mean", "setting": "[2]", "result": 87.167}
    ]},
    {"molecule": "MWGTFLKEAG (N-terminal region of bovine colostrum SAA) [10 amino acid N-terminal portion of mature bovine colostrum-SAA containing the conserved TFLK]", "values": [
      {"measurement": "time in which intestinal mucin genes are turned on", "setting": "[1]", "result": "≤ 30", "unit": "min"},
      {"measurement": "MUC3 mRNA stimulation versus control (in words)", "setting": "[1]", "result": "stimulated MUC3 mRNA statistically significantly over the control values"},
      {"measurement": "optimum concentration for MUC3 mRNA stimulation", "setting": "[1]; 30 minutes incubation", "result": 50, "unit": "μg/ml medium"},
      {"measurement": "MUC3 mRNA/28s RNA ratio, Mean", "setting": "[1]", "result": 174.833},
      {"measurement": "MUC2 mRNA increase over control (in words)", "setting": "[2]; 100 and 500 μg/ml, incubation time 1 hr", "result": "None of these changes resulted in MUC2 mRNA increase over control values"},
      {"measurement": "MUC2 mRNA stimulation versus control (in words)", "setting": "[2]; concentrations and conditions optimized for MUC3 stimulation", "result": "the values were not significantly different"},
      {"measurement": "MUC2 mRNA/28s RNA ratio, Mean", "setting": "[2]", "result": 101.167}
    ]},
    {"molecule": "DAAQRGPQQA (peptide of residues in C-terminal region of bovine SAA used as experimental control) [control 10 amino acid peptide, first 7 residues from the C-terminal region of bovine SAA, reference compound]", "values": [
      {"measurement": "MUC3 mRNA/28s RNA ratio, Mean", "setting": "[1]", "result": 111.333},
      {"measurement": "MUC2 mRNA/28s RNA ratio, Mean", "setting": "[2]", "result": 67.500}
    ]},
    {"molecule": "B1", "values": [
      {"measurement": "maximum level of colostrum-SAA production", "setting": "[3]; prolactin 5 μg/ml in media, 41 days in culture", "result": "~3000", "unit": "ng/mL"},
      {"measurement": "detection of colostrum-SAA in media (in words)", "setting": "[3]; prolactin stimulation, eight days", "result": "Measurable quantities of colostrum-SAA could be detected by day two"}
    ]},
    {"molecule": "B2", "values": [
      {"measurement": "apparent pI", "setting": "[4]; listed as SAA purified from the culture fluid of MAC-T cells stimulated with LPS", "result": "9.4–9.6"}
    ]},
    {"molecule": "B3", "values": [
      {"measurement": "apparent pI", "setting": "[4]", "result": "~7.0 and ~5.8 and ~5.5"}
    ]}
  ]
}
